Experimental data reported in patent publication US20130095493A1, “IDENTIFICATION OF THE GENE NOTCH3 AS A NOVEL BIOMARKER FOR HUMAN METASTATIC MELANOMA” (THE JOHNS HOPKINS UNIVERSITY, priority 2011, published 2013).
Entries after “also recorded” stand apart in the source; their conditions may differ.

Experiments:
Assay type in all cases: cell-based, human
[1] = system: GFP-1205Lu or RFP-HUVEC grown alone; assay: Growth of cells cultured alone under DAPT; details: 10 μM DAPT vs 0.1% DMSO
Source text: (§1) In previous investigations, we observed RFP-HUVEC communicating in a concerted fashion with metastatic melanoma cells to create a networking phenotype during 48 hrs of co-culture. It was thought that understanding the molecular determinants of this communication could lead to pharmacological targets for the prevention of melanoma-endothelial crosstalk in the clinical setting. To determine whether Notch signaling is involved in mediating the networking phenotype, GFP-1205Lu and RFP-HUVEC were co-cultured in 0.1% DMSO (vehicle) or 10 μM DAPT. These cells were also cultured alone in identical media to determine whether these conditions elicited any aberrant growth not attributable to co-culture.

[2] = system: Notch signaling (4XCBF-1 Notch luciferase reporter in GFP-1205Lu co-cultured with RFP-HUVEC); assay: Notch luciferase reporter co-culture (dual-luciferase assay)
Procedure: GFP-1205Lu was transfected using Lipofectamine 2000 with 4XCBF-1 Notch luciferase reporter (kindly provided by Dr. Diane Hayward, Johns Hopkins University) and Renilla control plasmid (2 μg total cDNA/well). Cells were transfected for 4 hr, then harvested by trypsinization and co-cultured with RFP-HUVEC at varying ratios for 24 hr in EGM-2. Cells were washed with PBS, snap-frozen, and stored at −80° C. Co-cultures were lysed using the Dual-Luciferase Reporter Assay System (Promega) and analyzed on a 1450 Microbeta plate reader (Perkin Elmer). The specificity of Notch signaling was verified using the pan-Notch inhibitor DAPT and 0.1% DMSO as a vehicle control.
The transcriptional activity of Notch is mediated by the CBF-1 promoter sequence upstream of target genes. CBF-1 recruits CSL transcriptional repressors which inactivate gene expression in the absence of NICD. […] Thus, by utilizing a four-tandem repeat of CBF-1 to drive luciferase expression during a transient transfection, canonical Notch signaling can be directly quantified by chemiluminescence activity in a target cell population. […]
To quantify Notch signaling within the model system, GFP-1205Lu was transiently transfected with 4XCBF-1 Notch luciferase reporter (PJH23A) and co-cultured with RFP-HUVEC for 24 hours. […]

[3] = system: RFP-HUVEC networking phenotype in GFP-1205Lu:RFP-HUVEC co-culture; assay: Melanoma-endothelial co-culture networking phenotype; details: 10 μM DAPT vs 0.1% DMSO; 1:1 GFP-1205Lu:RFP-HUVEC co-culture
Procedure: For co-culture experiments, various GFP-labeled melanoma cell lines were co-cultured with RFP-HUVEC at a 1:1 ratio to 95% confluency in EGM-2. Melanoma cells grown alone were cultured in EGM-2 to control for medium effects. Cells were co-cultured for 48 hours before sorting by FACS into pure populations. The sorted cell populations were divided and stored at −80° C. for mRNA and protein analysis.
as §1

## C[C@H](NC(=O)Cc1cc(F)cc(F)c1)C(=O)N[C@H](C(=O)OC(C)(C)C)c1ccccc1 [DAPT]
[1]
  Effect on growth of GFP-1205Lu or RFP-HUVEC grown alone: little effect; also recorded: no discernable difference
[2]; 10 μM DAPT vs 0.1% DMSO vehicle
  Inhibition of quantified Notch signaling: effectively inhibiting all quantified Notch signaling
[2]; GFP-1205Lu with 4XCBF-1 reporter, RFP-HUVEC co-culture 24 hours, DMSO vehicle had no effect
  Effect on co-culture stimulated Notch signaling (luciferase reporter): completely abrogated the co-culture stimulated Notch signaling; also recorded: completely abrogated all Notch signaling observed
[3]
  Effect on RFP-HUVEC networking phenotype in co-culture: drastically affected; also recorded: RFP-HUVEC network disruption
